Measured values as given in patent publication US12371436B2, “Substituted benzodiazoliums as ENaC inhibitors” (ENTERPRISE THERAPEUTICS LIMITED, priority 2016, dated 2025).
Counter-ions that a name gives are not always drawn.

biological target: T1, ENaC (Homo sapiens, UniProt P37088+P51168+P51170); assay: Short circuit current assay to determine ENaC blocker potency in human bronchial epithelial cells; format: cell-based; settings: 50% inhibition of total amiloride-sensitive ISC, apical addition, read-out: Averages.ENaC IC50 (nM) Avg
T1 construct: host or cells: primary human bronchial epithelial cells (HBECs) differentiated at air-liquid interface
T1 sequence (P37088 1-669): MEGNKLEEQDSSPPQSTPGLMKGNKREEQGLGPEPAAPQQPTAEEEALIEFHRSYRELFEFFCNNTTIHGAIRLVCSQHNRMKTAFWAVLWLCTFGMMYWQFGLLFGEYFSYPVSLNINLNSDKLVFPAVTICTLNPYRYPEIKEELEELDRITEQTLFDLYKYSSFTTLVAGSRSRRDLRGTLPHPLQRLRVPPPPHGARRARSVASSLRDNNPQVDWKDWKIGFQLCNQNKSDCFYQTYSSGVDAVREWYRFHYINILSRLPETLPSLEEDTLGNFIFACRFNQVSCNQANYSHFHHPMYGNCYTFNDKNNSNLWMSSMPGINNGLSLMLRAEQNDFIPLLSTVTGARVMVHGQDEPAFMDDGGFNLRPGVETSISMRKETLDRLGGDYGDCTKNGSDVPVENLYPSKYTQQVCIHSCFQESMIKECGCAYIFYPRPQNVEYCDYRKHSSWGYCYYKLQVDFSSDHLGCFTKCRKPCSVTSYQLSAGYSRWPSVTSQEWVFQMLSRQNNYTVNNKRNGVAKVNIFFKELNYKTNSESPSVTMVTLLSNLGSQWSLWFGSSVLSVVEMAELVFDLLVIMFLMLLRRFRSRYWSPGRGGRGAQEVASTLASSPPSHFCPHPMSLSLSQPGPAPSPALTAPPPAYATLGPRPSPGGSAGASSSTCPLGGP
T1 sequence (P51168 1-640): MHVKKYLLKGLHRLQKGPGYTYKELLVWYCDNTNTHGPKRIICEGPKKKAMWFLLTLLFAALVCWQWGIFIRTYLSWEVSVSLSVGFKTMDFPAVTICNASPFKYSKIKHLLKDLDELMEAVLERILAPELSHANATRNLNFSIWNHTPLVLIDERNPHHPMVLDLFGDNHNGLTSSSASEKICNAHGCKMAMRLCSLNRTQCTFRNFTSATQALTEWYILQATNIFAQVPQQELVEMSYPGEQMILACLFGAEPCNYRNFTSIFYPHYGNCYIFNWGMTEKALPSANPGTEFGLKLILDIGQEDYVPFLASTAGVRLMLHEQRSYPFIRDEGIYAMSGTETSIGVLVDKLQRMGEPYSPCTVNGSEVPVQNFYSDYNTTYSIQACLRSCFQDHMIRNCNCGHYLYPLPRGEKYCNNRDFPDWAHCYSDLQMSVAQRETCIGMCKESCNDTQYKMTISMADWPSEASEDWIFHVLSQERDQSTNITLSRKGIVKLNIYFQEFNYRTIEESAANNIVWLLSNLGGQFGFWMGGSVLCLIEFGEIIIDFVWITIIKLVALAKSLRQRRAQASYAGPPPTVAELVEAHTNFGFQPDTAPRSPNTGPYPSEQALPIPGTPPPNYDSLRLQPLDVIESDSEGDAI
T1 sequence (P51170 1-649): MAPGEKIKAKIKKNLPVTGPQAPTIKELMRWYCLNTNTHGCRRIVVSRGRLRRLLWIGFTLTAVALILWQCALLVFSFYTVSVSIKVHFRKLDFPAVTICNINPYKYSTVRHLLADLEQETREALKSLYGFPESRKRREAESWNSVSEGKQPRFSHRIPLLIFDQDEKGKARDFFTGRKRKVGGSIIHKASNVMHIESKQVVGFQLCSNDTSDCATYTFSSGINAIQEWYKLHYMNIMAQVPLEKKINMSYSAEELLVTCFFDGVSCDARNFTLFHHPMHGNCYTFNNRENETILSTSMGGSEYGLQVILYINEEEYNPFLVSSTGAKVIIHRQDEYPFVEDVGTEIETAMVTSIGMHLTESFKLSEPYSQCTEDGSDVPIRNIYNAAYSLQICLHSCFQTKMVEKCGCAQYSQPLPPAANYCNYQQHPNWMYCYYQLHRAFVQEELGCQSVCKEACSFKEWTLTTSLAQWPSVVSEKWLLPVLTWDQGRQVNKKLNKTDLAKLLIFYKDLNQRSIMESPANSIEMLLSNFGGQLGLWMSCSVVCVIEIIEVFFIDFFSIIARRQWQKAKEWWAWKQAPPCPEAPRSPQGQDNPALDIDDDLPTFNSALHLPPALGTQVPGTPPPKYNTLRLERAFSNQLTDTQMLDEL
Procedure: Example 68—Short circuit current assay to determine ENaC blocker potency in human bronchial epithelial cells
Human bronchial epithelial cells (HBECs) (Lonza, UK) were cultured using a modification of the method described by Coote et al, (2008). Cells were seeded into plastic T-75 flasks and grown in Bronchial Epithelial Cell Growth Medium (BEGM) (Lonza, UK) supplemented with bovine pituitary extract (52 ng/mL), hydrocortisone (0.5 μg/mL), human recombinant Epidermal Growth Factor (0.5 ng/mL), epinephrine (0.5 ng/mL), transferrin (10 ng/mL), insulin (5 ng/mL), retinoic acid (0.1 ng/mL), triiodothyronine (6.5 ng/mL), gentamycin (50 μg/mL) and amphotericin-B (50 ng/mL). Medium was changed every 48 hours until cells were 90% confluent. Cells were then passaged and seeded (8.25×10^5 cells/insert) onto polycarbonate Snapwell™ inserts (Costar, UK) in differentiation media containing 50% DMEM in BGEM with the same supplements as above but without triiodothyronine and a final retinoic acid concentration of 50 nM (all-trans retinoic acid; Sigma-Aldrich, UK). Cells were maintained submerged for the first 7 days in culture after which time they were exposed to an apical air interface for the remainder of the culture period. From the first day of establishment of an ALI, HBEC were fed with a DMEM:HAMS F-12 (1:1) media containing 2% Ultroser G (Pall BioSepra, France) with gentamycin (50 μg/mL) and amphotericin B (50 ng/mL). Cells were used for short-circuit current assay between days 14-21 after the establishment of the ALI. At all stages of culture, cells were maintained at 37° C. in 5% CO2 in an air incubator.
Short-Circuit Current (ISC) Measurements
Snapwell inserts were mounted in Costar Vertical Diffusion Chambers (Costar, UK) and were bathed with continuously gassed Ringer solution (5% CO2 in O2; pH 7.4) maintained at 37° C. containing (in mM): 120 NaCl, 25 NaHCO3, 3.3 KH2PO4, 0.8 K2HPO4, 1.2 CaCl2, 1.2 MgCl2 and 10 glucose. The solution osmolarity was always between 280-300 mOsm/kg H2O for all physiological salt solutions used. Cells were voltage clamped to 0 mV (model EVC4000, WPI). Transepithelial resistance (RT) was measured by applying a 2 mV pulse at 30 s intervals and calculating RT by Ohm's law. Data were recorded using a PowerLab workstation (ADlnstruments, UK).
ENaC blocker compounds were added to the apical chamber from a 1000-fold stock solution (prepared in DMSO) to achieve a cumulative concentration response in terms of the inhibition of the basal ISC. At the completion of the concentration response, a supra-maximal concentration of amiloride (10 μM) was added. The concentration of test compound that induced a 50% inhibition of the total amiloride-sensitive ISC (IC50) was calculated using GraphPad Prism v6.05. The results are presented in Table 2, from which it can be seen that the compounds of the present invention have ENaC inhibiting activity.

Structure (SMILES)	IC50
CCn1c(CNC(=O)c2nc3cc[nH]c3nc2N)[n+](CC)c2ccc(CCCNC(=N)N)cc21 [Example 33, 2-[({3-amino-5H-pyrrolo[2,3-b]pyrazin-2-yl}formamido)methyl]-6-(3-carbamimidamidopropyl)-1,3-diethyl-1H-1,3-benzodiazol-3-ium]	3 nM
CCn1c(CNC(=O)c2nc3cc[nH]c3nc2N)[n+](CC)c2ccc(C(=O)N3CC[C@@H](N(C[C@H](O)[C@@H](O)[C@H](O)[C@H](O)CO)C[C@H](O)[C@@H](O)[C@H](O)[C@H](O)CO)C3)cc21 [Example 53, 2-[({3-amino-5H-pyrrolo[2,3-b]pyrazin-2-yl}formamido)methyl]-6-[(3R)-3-{bis[(2S,3R,4R,5R)-2,3,4,5,6-pentahydroxyhexyl]amino}pyrrolidine-1-carbonyl]-1,3-diethyl-1H-1,3-benzodiazol-3-ium]	202 nM
CCn1c(CNC(=O)c2nc3cc[nH]c3nc2N)[n+](CC)c2ccc(-c3cnn(C4CCNCC4)c3)cc21 [Example 31, 2-[({3-amino-5H-pyrrolo[2,3-b]pyrazin-2-yl}formamido)methyl]-1,3-diethyl-6-[1-(piperidin-4-yl)-1H-pyrazol-4-yl]-1H-1,3-benzodiazol-3-ium]	1 nM
CCn1c(CNC(=O)c2nc3cc[nH]c3nc2N)[n+](CC)c2ccc(OCCCNC(=O)OC(C)(C)C)cc21 [Example 23, 2-[({3-amino-5H-pyrrolo[2,3-b]pyrazin-2-yl}formamido)methyl]-6-(3-{[(tert-butoxy)carbonyl]amino}propoxy)-1,3-diethyl-1H-1,3-benzodiazol-3-ium]	4 nM
CCn1c(CNC(=O)c2nc3c(C#N)c[nH]c3nc2N)[n+](CC)c2ccc(OC)cc21 [Example 67, 2-[({3-amino-7-cyano-5H-pyrrolo[2,3-b]pyrazin-2-yl}formamido)methyl]-1,3-diethyl-6-methoxy-1H-1,3-benzodiazol-3-ium formate]	54 nM
CCn1c(CNC(=O)c2nc3cc[nH]c3nc2N)[n+](CC)c2ccc(C(=O)NCCN3CCC(NC(=O)OC(C)(C)C)CC3)cc21 [Example 38, 2-[({3-amino-5H-pyrrolo[2,3-b]pyrazin-2-yl}formamido)methyl]-6-{[2-(4-{[(tert-butoxy)carbonyl]amino}piperidin-1-yl)ethyl]carbamoyl}-1,3-diethyl-1H-1,3-benzodiazol-3-ium]	9 nM
CCn1c(CNC(=O)c2nc3cc[nH]c3nc2N)[n+](C)c2ccc(F)cc21 [Example 2, 2-[({3-amino-5H-pyrrolo[2,3-b]pyrazin-2-yl}formamido)methyl]-1-ethyl-6-fluoro-3-methyl-1H-1,3-benzodiazol-3-ium chloride]	43 nM
CCn1c(CNC(=O)c2nc3c(Cl)c[nH]c3nc2N)[n+](CC)c2ccc(Cl)cc21 [Example 21, 2-[({3-amino-7-chloro-5H-pyrrolo[2,3-b]pyrazin-2-yl}formamido)methyl]-6-chloro-1,3-diethyl-1H-1,3-benzodiazol-3-ium]	2 nM
CCn1c(CNC(=O)c2nc3cc[nH]c3nc2N)[n+](CC)c2ccc(C(=O)NCCCNC(=O)OC(C)(C)C)cc21 [Example 35, 2-[({3-amino-5H-pyrrolo[2,3-b]pyrazin-2-yl}formamido)methyl]-6-[(3-{[(tert-butoxy)carbonyl]amino}propyl)carbamoyl]-1,3-diethyl-1H-1,3-benzodiazol-3-ium formic acid]	5 nM
CCn1c(CNC(=O)c2nc3cc[nH]c3nc2N)[n+](C)c2ccc(OC(F)(F)F)cc21 [Example 6, 2-[({3-amino-5H-pyrrolo[2,3-b]pyrazin-2-yl}formamido)methyl]-1-ethyl-3-methyl-6-(trifluoromethoxy)-1H-1,3-benzodiazol-3-ium formate]	5 nM
CCn1c(CNC(=O)c2nc3cc[nH]c3nc2N)[n+](CC)c2ccc(CCCN)cc21 [Example 29, 2-[({3-amino-5H-pyrrolo[2,3-b]pyrazin-2-yl}formamido)methyl]-6-(3-aminopropyl)-1,3-diethyl-1H-1,3-benzodiazol-3-ium]	5 nM
CCn1c(CNC(=O)c2nc3cc[nH]c3nc2N)[n+](CC)c2ccc(C3CCNCC3)cc21 [Example 30, 2-[({3-amino-5H-pyrrolo[2,3-b]pyrazin-2-yl}formamido)methyl]-1,3-diethyl-6-(piperidin-4-yl)-1H-1,3-benzodiazol-3-ium]	6 nM
CCn1c(CNC(=O)c2nc3cc[nH]c3nc2N)[n+](CC(N)=O)c2ccc(OC)cc21 [Example 11, 2-[({3-amino-5H-pyrrolo[2,3-b]pyrazin-2-yl}formamido)methyl]-3-(carbamoylmethyl)-1-ethyl-6-methoxy-1H-1,3-benzodiazol-3-ium bromide]	22 nM
CCn1c(CNC(=O)c2nc3cc[nH]c3nc2N)[n+](C)c2ccc(OC)cc21 [Example 4, 2-[({3-amino-5H-pyrrolo[2,3-b]pyrazin-2-yl}formamido)methyl]-1-ethyl-6-methoxy-3-methyl-1H-1,3-benzodiazol-3-ium formate]	8 nM
